From PubChem BioAssay (NCI)
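The compound was tested at five concentrations on cells cultured in 96-well plates, with a 48-hour exposure period. GI50 marks 50% less growth. TGI: concentration producing complete growth inhibition.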

Key:
Assay in all cases: NCI anticancer screen, dose series, 48 h
CCRF-CEM leukemia = test system: CCRF-CEM leukemia
UO-31 renal = test system: UO-31 renal
LOX IMVI melanoma = test system: LOX IMVI melanoma
T-47D breast = test system: T-47D breast
IGROV1 ovarian = test system: IGROV1 ovarian
CAKI-1 renal = test system: CAKI-1 renal
NCI-H522 lung = test system: NCI-H522 lung
HCT-15 colon = test system: HCT-15 colon
BT-549 breast = test system: BT-549 breast
HL-60(TB) leukemia = test system: HL-60(TB) leukemia

Structure (SMILES)	GI50 (CCRF-CEM leukemia) [µM]	TGI (CCRF-CEM leukemia) [µM]	GI50 (UO-31 renal) [µM]	TGI (UO-31 renal) [µM]	GI50 (LOX IMVI melanoma) [µM]	TGI (LOX IMVI melanoma) [µM]	GI50 (T-47D breast) [µM]	TGI (T-47D breast) [µM]	GI50 (IGROV1 ovarian) [µM]	TGI (IGROV1 ovarian) [µM]	GI50 (CAKI-1 renal) [µM]	TGI (CAKI-1 renal) [µM]	GI50 (NCI-H522 lung) [µM]	TGI (NCI-H522 lung) [µM]	GI50 (HCT-15 colon) [µM]	TGI (HCT-15 colon) [µM]	GI50 (BT-549 breast) [µM]	TGI (BT-549 breast) [µM]	GI50 (HL-60(TB) leukemia) [µM]	TGI (HL-60(TB) leukemia) [µM]
O=C([O-])CC(=O)[O-].[NH-][C@@H]1CCCC[C@H]1[NH-].[Pt+4]	4.32	> 100	18.9	> 100	15	> 100	8.38	> 100	33.5	> 100	3.53	> 100	18.7	> 100	9.61	> 100	32.8	> 100	6.31	> 100
C=C(C)[C@@H]1CC[C@]2(C(=O)NS(=O)(=O)c3ccccc3)CC[C@]3(C)[C@H](CC[C@@H]4[C@@]5(C)CC[C@H](OC(=O)NS(=O)(=O)c6ccccc6)C(C)(C)[C@@H]5CC[C@]43C)[C@@H]12	2.29	19.5	1.49	3.04	1.56	3.06	1.74	7.37	2.46	5.56	3.06	22.5	2.48	9.19	1.62	4.65	1.79	6.31	2.24	5.08
CC1(C)CCC[C@]2(C)c3ccccc3C(=O)CC12 (some centres undefined)	31.7	> 100	53.1	> 100	38.4	> 100	53.5	> 100	45.3	> 100	83.1	> 100	27.7	76.1	24.9	> 100	39.4	> 100	40.5	> 100
COc1cc2nccc(Oc3ccc(NC(=O)c4cn(C(C)C)c(=O)n(-c5ccc(F)cc5)c4=O)cc3F)c2cc1OC	> 100	> 100	3.65	> 40	> 100	> 100	3.23	34.4		> 100	1.91	6	> 22.5	> 100	> 100	> 100	3.29	11.3	> 100	> 100
COc1cc(NCCCCCN=C(N)NC(N)=NC(C)C)c2ncccc2c1	2.2	17.4	27.1	> 100	0.495	2.79	0.302	1.71	0.228	0.809	> 73.1	> 100	1.18	4.58	34.1	> 100	2.03	5.61	0.575	3.46
CNC(=O)c1cncc(/C=C/c2ccccc2Cl)c1	> 25	> 25	> 23.6	> 25	> 25	> 25	> 23.6	> 25	> 25	> 25	> 25	> 25	> 25	> 25	> 25	> 25	> 25	> 25	> 25	> 25
